These results are taken from patent US12478598B2 (Rush University Medical Center, priority 2019, dated 2025).

For assay [1], the system named is lenti-GLDC shRNA-insulted mice. Put plainly: Glycine level in cortex of lenti-GLDC shRNA-insulted mice (fluorometric assay kit). It counts as in vivo, C57/BL6 mice. As to conditions: oral, 14 d of treatment. Here is the method: FIG. 2. […] C57/BL6 mice (8-10 week old) received lentiviral GLDC shRNA (1×10^7 IFU/mouse in 100 μl HBSS) once via tail-vein injection. Therefore, control mice also received 100 μl HBSS via tail-vein. From 7 d after lenti-GLDC shRNA injection, mice were treated with different doses (50 and 100 mg/kg body wt/d) of CA daily via gavage. After 14 d of CA treatment, the level of glycine was measured in cortex by using a fluorometric assay kit (Biovision). Each mouse sample was run in triplicate. Results are mean±SEM of five mice per group.
(§1) C57/BL6 mice (8-10 week old) received lentiviral GLDC shRNA (1×10^7 IFU/mouse in 100 μl Hank's Balanced Salt Solution or HBSS) once via tail-vein injection (FIG. 1). Therefore, a group of control mice received only 100 μl HBSS via tail-vein injection.
(§2) Therefore, one group of lenti-GLDC shRNA-insulted mice were also treated with 100 μl 0.5% methyl cellulose as vehicle control.
On 14 d of treatment, mice were sacrificed and level of glycine was measured in brain (cortex).

In assay [2] the test system is lenti-GLDC shRNA-insulted mice. Put plainly: Barnes maze spatial learning and memory in lenti-GLDC shRNA-insulted mice. It counts as in vivo, C57/BL6 mice. The note with it: 50 and 100 mg/kg body wt/d, daily gavage, after 7 d of treatment. The protocol:
FIG. 1A-1B. […] C57/BL6 mice (8-10 week old) received lentiviral GLDC shRNA (1×10^7 IFU/mouse in 100 μl Hank's Balanced Salt Solution or HBSS) once via tail-vein injection. Therefore, control mice also received 100 μl HBSS via tail-vein. From 7 d after lenti-GLDC shRNA injection, mice were treated with different doses (50 and 100 mg/kg body wt/d) of CA daily via gavage. After 7 d of CA treatment, spatial learning and memory was monitored by Barnes maze (FIG. 1A, latency; FIG. 1B, errors). Results are mean±SEM of five mice per group.
as §1, §2
Lenti-GLDC shRNA-insulted mice took longer time to find the correct hole (FIG. 1A) and made more errors (FIG. 1B) as compared to HBSS-treated control mice.

Molecules are shown by their SMILES.

Take `O=C(O)C=Cc1ccccc1` [cinnamic acid]: the “level of glycine in the cortex” value in assay [1] (50 mg/kg body wt/d) was “very effective in lowering the level of glycine”. For the same molecule, in assay [1] (50 and 100 mg/kg body wt/d), the “level of glycine in the cortex” value is listed as “strongly inhibited the level of glycine”. Besides, in assay [2], the “errors in reaching the target hole (Barnes maze)” value is “significantly reduced latency and errors”; the “latency in reaching the target hole (Barnes maze)” value was “significantly reduced latency”.
